Measurements as given in patent US20120148492A1, “BISPHOSPHONIC ACID DERIVATIVE AND COMPOUND THEREOF LABELED WITH RADIOACTIVE METAL NUCLIDE” (FUJIFILM RI PHARMA CO., LTD., priority 2009, published 2012).
Values belong to the compound of their own block, whether it stands above or below them.

How the values were obtained:
[1] = Rat in vivo distribution experiment; conditions: for Blood radioactivity / Bone radioactivity / Kidney radioactivity / Large intestine radioactivity / Liver radioactivity / Muscle radioactivity / Small intestine radioactivity / Spleen radioactivity / Bone/blood: Wistar male rats; for Blood radioactivity / Bone radioactivity / Kidney radioactivity / Large intestine radioactivity / Liver radioactivity / Muscle radioactivity / Small intestine radioactivity / Spleen radioactivity: tail vein; for Bone/blood: ratio of radioactivity accumulation
Description: Subsequently, 15, 30, 60, 120, and 240 minutes after administration, the rats were sacrificed, organs were excised, and the weight and the radioactivity of each organ were measured. The measurement values were calculated as % I.D./g tissue weight, which is the radioactivity in each tissue divided by the tissue weight, as the ratio with respect to the dose.

[2] = In vivo distribution of 68Ga-DOTA-alendronate in rats; design: species or system rat; conditions: for Blood radioactivity / Bone radioactivity / Kidney radioactivity / Large intestine radioactivity / Liver radioactivity / Muscle radioactivity / Small intestine radioactivity / Spleen radioactivity / Bone/blood: Wistar male rats, 120 minutes after drug administration; for Blood radioactivity / Bone radioactivity / Kidney radioactivity / Large intestine radioactivity / Liver radioactivity / Muscle radioactivity / Small intestine radioactivity / Spleen radioactivity: tail vein; for Bone/blood: ratio of radioactivity accumulation
Description: To groups, each containing three Wistar male rats, 0.2 mL of each of 68Ga-DOTA-alendronate and 99mTc-MDP (product name: Techne MDP injection, manufactured by FUJIFILM RI Pharma Co., Ltd., 740 MBq/2 mL), each diluted to 12.3 to 19.8 MBq/mL, was administered into the rat tail vein under anesthesia. Then, 120 minutes after administration, the rats were sacrificed, organs were excised, and the weight and the radioactivity of each organ were measured. The measurement values were calculated as % I.D./g tissue weight, which is the radioactivity in each tissue divided by the tissue weight, as the ratio with respect to the dose.

[3] = Wistar male rats, 18.5 to 37 MBq tail vein, from 60 minutes after administration
Description: To Wistar male rats, 68Ga-NOTA-alendronate and 99m Tc-MDP were each administered into the rat tail vein in amounts of 18.5 to 37 MBq under anesthesia. Then, 60 and 180 minutes after administration, images were taken by PET/CT or a SPECT camera.

[4] = test system: local bone metastasis model (human prostate cancer-derived cells transplanted into the right tibia); conditions: local bone metastasis model mouse, approximately 6.0 MBq, from 60 minutes after administration
Description: Human prostate cancer-derived cells were transplanted into the right tibia of a mouse to produce a local bone metastasis model. To this model mouse, approximately 6.0 MBq of 68Ga-NOTA-alendronate was administered into the […] under anesthesia. An image was taken by PET/CT 60 minutes after administration.

Blood radioactivity ([1]; 15 min after administration): 0.415 % I.D./g
Bone radioactivity ([1]; 15 min after administration): 3.25 % I.D./g
Kidney radioactivity ([1]; 15 min after administration): 2.84 % I.D./g
Large intestine radioactivity ([1]; 15 min after administration): 0.121 % I.D./g
Liver radioactivity ([1]; 15 min after administration): 0.086 % I.D./g
Muscle radioactivity ([1]; 15 min after administration): 0.085 % I.D./g
Small intestine radioactivity ([1]; 15 min after administration): 0.134 % I.D./g
Spleen radioactivity ([1]; 15 min after administration): 0.107 % I.D./g
Blood radioactivity ([1]; 30 min after administration): 0.171 % I.D./g
Bone radioactivity ([1]; 30 min after administration): 3.41 % I.D./g
Kidney radioactivity ([1]; 30 min after administration): 1.02 % I.D./g
Large intestine radioactivity ([1]; 30 min after administration): 0.062 % I.D./g
Liver radioactivity ([1]; 30 min after administration): 0.048 % I.D./g
Muscle radioactivity ([1]; 30 min after administration): 0.036 % I.D./g
Small intestine radioactivity ([1]; 30 min after administration): 0.093 % I.D./g
Spleen radioactivity ([1]; 30 min after administration): 0.056 % I.D./g
Blood radioactivity ([1]; 60 min after administration): 0.044 % I.D./g
Bone radioactivity ([1]; 60 min after administration): 3.97 % I.D./g
Kidney radioactivity ([1]; 60 min after administration): 0.62 % I.D./g
Large intestine radioactivity ([1]; 60 min after administration): 0.020 % I.D./g
Liver radioactivity ([1]; 60 min after administration): 0.029 % I.D./g
Muscle radioactivity ([1]; 60 min after administration): 0.010 % I.D./g
Small intestine radioactivity ([1]; 60 min after administration): 0.081 % I.D./g
Spleen radioactivity ([1]; 60 min after administration): 0.027 % I.D./g
Blood radioactivity ([1]; 120 min after administration): 0.018 % I.D./g
Bone radioactivity ([1]; 120 min after administration): 4.07 % I.D./g
Kidney radioactivity ([1]; 120 min after administration): 0.36 % I.D./g
Large intestine radioactivity ([1]; 120 min after administration): 0.053 % I.D./g
Liver radioactivity ([1]; 120 min after administration): 0.022 % I.D./g
Muscle radioactivity ([1]; 120 min after administration): 0.005 % I.D./g
Small intestine radioactivity ([1]; 120 min after administration): 0.299 % I.D./g
Spleen radioactivity ([1]; 120 min after administration): 0.019 % I.D./g
Blood radioactivity ([1]; 240 min after administration): 0.012 % I.D./g
Bone radioactivity ([1]; 240 min after administration): 4.25 % I.D./g
Kidney radioactivity ([1]; 240 min after administration): 0.35 % I.D./g
Large intestine radioactivity ([1]; 240 min after administration): 0.467 % I.D./g
Liver radioactivity ([1]; 240 min after administration): 0.019 % I.D./g
Muscle radioactivity ([1]; 240 min after administration): 0.004 % I.D./g
Small intestine radioactivity ([1]; 240 min after administration): 0.056 % I.D./g
Spleen radioactivity ([1]; 240 min after administration): 0.019 % I.D./g
Bone/blood ([1]; 15 min after administration): 8
Bone/blood ([1]; 30 min after administration): 20
Bone/blood ([1]; 60 min after administration): 91
Bone/blood ([1]; 120 min after administration): 228
Bone/blood ([1]; 240 min after administration): 358
Blood radioactivity [2]: 0.021 % I.D./g
Bone radioactivity [2]: 4.38 % I.D./g
Kidney radioactivity [2]: 0.44 % I.D./g
Large intestine radioactivity [2]: 0.015 % I.D./g
Liver radioactivity [2]: 0.024 % I.D./g
Muscle radioactivity [2]: 0.007 % I.D./g
Small intestine radioactivity [2]: 0.224 % I.D./g
Spleen radioactivity [2]: 0.020 % I.D./g
Bone/blood [2]: 209
Compound: O.O.O=P([O-])([O-])CP(=O)([O-])[O-].[99Tc+4] [99mTc-MDP]

radioactivity accumulation in bone ([2]; 120 minutes after administration, as 99mTc-MDP did): high radioactivity accumulation in bone
Blood radioactivity [2]: 0.024 % I.D./g
Bone radioactivity [2]: 4.54 % I.D./g
Kidney radioactivity [2]: 0.26 % I.D./g
Large intestine radioactivity [2]: 0.055 % I.D./g
Liver radioactivity [2]: 0.018 % I.D./g
Muscle radioactivity [2]: 0.005 % I.D./g
Small intestine radioactivity [2]: 0.522 % I.D./g
Spleen radioactivity [2]: 0.020 % I.D./g
clearance from blood ([2]; rat, versus 99mTc-MDP): delayed clearance from blood
Bone/blood [2]: 189
ratio of radioactivity accumulation in bone/blood ([2]; two hours after administration, versus 99mTc-MDP): no improvement
Compound: O=C([O-])CN1CCN(CC(=O)[O-])CCN(CC(=O)NCCCC(O)(P(=O)(O)O)P(=O)(O)O)CCN(CC(=O)[O-])CC1.[68Ga+3] [68Ga-DOTA-alendronate]

Blood radioactivity ([1]; 15 min after administration): 0.399 % I.D./g
Bone radioactivity ([1]; 15 min after administration): 3.64 % I.D./g
Kidney radioactivity ([1]; 15 min after administration): 3.43 % I.D./g
Large intestine radioactivity ([1]; 15 min after administration): 0.132 % I.D./g
Liver radioactivity ([1]; 15 min after administration): 0.081 % I.D./g
Muscle radioactivity ([1]; 15 min after administration): 0.085 % I.D./g
Small intestine radioactivity ([1]; 15 min after administration): 0.121 % I.D./g
Spleen radioactivity ([1]; 15 min after administration): 0.103 % I.D./g
Blood radioactivity ([1]; 30 min after administration): 0.145 % I.D./g
Bone radioactivity ([1]; 30 min after administration): 4.17 % I.D./g
Kidney radioactivity ([1]; 30 min after administration): 0.89 % I.D./g
Large intestine radioactivity ([1]; 30 min after administration): 0.054 % I.D./g
Liver radioactivity ([1]; 30 min after administration): 0.039 % I.D./g
Muscle radioactivity ([1]; 30 min after administration): 0.033 % I.D./g
Small intestine radioactivity ([1]; 30 min after administration): 0.070 % I.D./g
Spleen radioactivity ([1]; 30 min after administration): 0.046 % I.D./g
Blood radioactivity ([1]; 60 min after administration): 0.030 % I.D./g
Bone radioactivity ([1]; 60 min after administration): 4.59 % I.D./g
Kidney radioactivity ([1]; 60 min after administration): 0.43 % I.D./g
Large intestine radioactivity ([1]; 60 min after administration): 0.023 % I.D./g
Liver radioactivity ([1]; 60 min after administration): 0.020 % I.D./g
Muscle radioactivity ([1]; 60 min after administration): 0.008 % I.D./g
Small intestine radioactivity ([1]; 60 min after administration): 0.056 % I.D./g
Spleen radioactivity ([1]; 60 min after administration): 0.021 % I.D./g
Blood radioactivity ([1]; 120 min after administration): 0.005 % I.D./g
Bone radioactivity ([1]; 120 min after administration): 5.19 % I.D./g
Kidney radioactivity ([1]; 120 min after administration): 0.37 % I.D./g
Large intestine radioactivity ([1]; 120 min after administration): 0.019 % I.D./g
Liver radioactivity ([1]; 120 min after administration): 0.015 % I.D./g
Muscle radioactivity ([1]; 120 min after administration): 0.004 % I.D./g
Small intestine radioactivity ([1]; 120 min after administration): 0.073 % I.D./g
Spleen radioactivity ([1]; 120 min after administration): 0.014 % I.D./g
Blood radioactivity ([1]; 240 min after administration): 0.003 % I.D./g
Bone radioactivity ([1]; 240 min after administration): 4.75 % I.D./g
Kidney radioactivity ([1]; 240 min after administration): 0.28 % I.D./g
Large intestine radioactivity ([1]; 240 min after administration): 0.077 % I.D./g
Liver radioactivity ([1]; 240 min after administration): 0.016 % I.D./g
Muscle radioactivity ([1]; 240 min after administration): 0.002 % I.D./g
Small intestine radioactivity ([1]; 240 min after administration): 0.011 % I.D./g
Spleen radioactivity ([1]; 240 min after administration): 0.012 % I.D./g
ratio of radioactivity accumulation in bone to that in blood ([1]; compared to 99mTc-MDP, from an early stage after administration): dominantly improved
accumulation in bone ([1]; compared to 99mTc-MDP, rat): equivalent value of accumulation in bone
non-specific accumulation in other organs ([1]; rat, similar amount to that of 99mTc-MDP): almost no non-specific accumulation
Bone/blood ([1]; 15 min after administration): 9
Bone/blood ([1]; 30 min after administration): 29
Bone/blood ([1]; 60 min after administration): 155
Bone/blood ([1]; 120 min after administration): 958
Bone/blood ([1]; 240 min after administration): 1696
Compound: O=C([O-])CN1CCN(CC(=O)[O-])CCN(C(CCC(=O)NCCCC(O)(P(=O)(O)O)P(=O)(O)O)C(=O)[O-])CC1.[68Ga+3] (stereo not drawn) [68Ga-NOTA-alendronate]
clearance of radioactivity from blood ([1]; compared to 99mTc-MDP, rat): more rapid clearance of radioactivity from blood
visualization of bone in images [3]: bone is clearly visualized
visualization of bone and bone lesion in PET/CT image [4]: bone and the arrowed bone lesion are clearly visualized
